Where “and” joins values, the source holds several entries; their conditions need not be identical. Equal entries are not always repeated. ± gives the uncertainty stated by the source.
Assay: xn = mol fraction of the nth substance listed
Conditions: 100 kPa

CN1CCCN(C)C1=O + O
viscosity
Conditions	303.15 K	308.15 K	313.15 K	318.15 K	323.15 K
x1 = 0.007139	0.942 ± 0.057 mPa·s	0.848 ± 0.051 mPa·s	0.769 ± 0.047 mPa·s	0.699 ± 0.042 mPa·s	–
x1 = 0.01508	1.127 ± 0.068 mPa·s	1.012 ± 0.061 mPa·s	0.919 ± 0.055 mPa·s	0.843 ± 0.051 mPa·s	–
x1 = 0.0297	1.386 ± 0.084 mPa·s	1.236 ± 0.075 mPa·s	1.112 ± 0.067 mPa·s	1.002 ± 0.06 mPa·s	–
x1 = 0.0568	1.979 ± 0.12 mPa·s	1.733 ± 0.1 mPa·s	1.538 ± 0.093 mPa·s	1.379 ± 0.083 mPa·s	–
x1 = 0.08573	2.774 ± 0.17 mPa·s	2.371 ± 0.14 mPa·s	2.05 ± 0.12 mPa·s	1.791 ± 0.11 mPa·s	–
x1 = 0.1227	3.836 ± 0.23 mPa·s	3.224 ± 0.19 mPa·s	2.741 ± 0.17 mPa·s	2.354 ± 0.14 mPa·s	–
x1 = 0.1461	4.568 ± 0.28 mPa·s	3.799 ± 0.23 mPa·s	3.201 ± 0.19 mPa·s	2.728 ± 0.16 mPa·s	–
x1 = 0.1745	5.342 ± 0.32 mPa·s	4.401 ± 0.27 mPa·s	3.676 ± 0.22 mPa·s	3.114 ± 0.19 mPa·s	–
x1 = 0.2062	5.943 ± 0.36 mPa·s	4.87 ± 0.29 mPa·s	4.051 ± 0.24 mPa·s	3.414 ± 0.2 mPa·s	–
x1 = 0.2453	6.471 ± 0.39 mPa·s	5.287 ± 0.32 mPa·s	4.386 ± 0.26 mPa·s	3.685 ± 0.22 mPa·s	–
x1 = 0.2961	6.828 ± 0.41 mPa·s	5.569 ± 0.34 mPa·s	4.616 ± 0.28 mPa·s	3.878 ± 0.23 mPa·s	–
x1 = 0.3486	6.796 ± 0.41 mPa·s	5.568 ± 0.34 mPa·s	4.626 ± 0.28 mPa·s	3.9 ± 0.23 mPa·s	–
x1 = 0.3968	6.483 ± 0.39 mPa·s	5.332 ± 0.32 mPa·s	4.45 ± 0.27 mPa·s	3.744 ± 0.23 mPa·s	–
x1 = 0.4616	6.161 ± 0.37 mPa·s	5.13 ± 0.31 mPa·s	4.326 ± 0.26 mPa·s	3.692 ± 0.22 mPa·s	–
x1 = 0.5081	5.768 ± 0.35 mPa·s	4.838 ± 0.29 mPa·s	4.11 ± 0.25 mPa·s	3.531 ± 0.21 mPa·s	–
x1 = 0.5809	5.129 ± 0.31 mPa·s	4.357 ± 0.26 mPa·s	3.75 ± 0.23 mPa·s	3.257 ± 0.2 mPa·s	–
x1 = 0.6498	4.532 ± 0.27 mPa·s	3.892 ± 0.23 mPa·s	3.37 ± 0.2 mPa·s	2.946 ± 0.18 mPa·s	–
x1 = 0.6917	4.245 ± 0.26 mPa·s	3.672 ± 0.22 mPa·s	3.202 ± 0.19 mPa·s	2.817 ± 0.17 mPa·s	–
x1 = 0.797	3.571 ± 0.21 mPa·s	3.134 ± 0.19 mPa·s	2.772 ± 0.17 mPa·s	2.468 ± 0.15 mPa·s	–
x1 = 0.8669	3.203 ± 0.19 mPa·s	2.837 ± 0.17 mPa·s	2.531 ± 0.15 mPa·s	2.274 ± 0.14 mPa·s	–
x1 = 0.9357	2.957 ± 0.18 mPa·s	2.647 ± 0.16 mPa·s	2.384 ± 0.14 mPa·s	2.16 ± 0.13 mPa·s	–
x1 = 0.9554	2.834 ± 0.17 mPa·s	2.533 ± 0.15 mPa·s	2.283 ± 0.14 mPa·s	2.071 ± 0.12 mPa·s	–
x2 = 0.0016	–	2.348 ± 0.14 mPa·s and 2.365 ± 0.14 mPa·s	2.126 ± 0.13 mPa·s and 2.141 ± 0.13 mPa·s	1.937 ± 0.12 mPa·s and 1.95 ± 0.12 mPa·s	1.777 ± 0.11 mPa·s and 1.784 ± 0.11 mPa·s
x2 = 0.0169	–	2.425 ± 0.15 mPa·s	2.191 ± 0.13 mPa·s	1.992 ± 0.12 mPa·s	1.819 ± 0.11 mPa·s

From the CheMixHub viscosity set
